These molecules were tested against Lanosterol 14-alpha demethylase (Candida albicans) (UniProt P10613) (assay: In vitro inhibition of cytochrome P450 lanosterol C14 demethylase in Candida albicans CY1005).
Lanosterol 14-alpha demethylase (Candida albicans), sequence (P10613 whole entry, looked up): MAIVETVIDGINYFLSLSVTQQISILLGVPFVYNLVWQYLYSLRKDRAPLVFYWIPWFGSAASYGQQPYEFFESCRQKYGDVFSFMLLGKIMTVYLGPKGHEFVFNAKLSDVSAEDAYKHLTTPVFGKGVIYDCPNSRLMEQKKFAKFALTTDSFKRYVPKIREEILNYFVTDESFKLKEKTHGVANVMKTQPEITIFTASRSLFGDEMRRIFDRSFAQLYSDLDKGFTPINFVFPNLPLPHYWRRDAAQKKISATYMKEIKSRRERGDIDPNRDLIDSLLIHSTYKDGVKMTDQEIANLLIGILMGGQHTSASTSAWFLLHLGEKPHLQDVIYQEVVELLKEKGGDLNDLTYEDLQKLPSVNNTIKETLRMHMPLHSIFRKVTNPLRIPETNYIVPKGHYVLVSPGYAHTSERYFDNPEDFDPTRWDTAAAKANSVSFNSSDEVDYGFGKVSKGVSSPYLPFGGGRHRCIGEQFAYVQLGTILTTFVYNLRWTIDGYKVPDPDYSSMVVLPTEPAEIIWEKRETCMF

Q: With `CCc1ccc(CC[C@@H]2CCC(C)(C)C(OCCO)[C@H]2Cn2cncn2)cc1` (some centres not stated) as the molecule, how does the IC50 read?
A: 83 nM

Q: Which IC50 does the source give for `COC1[C@@H](Cn2cncn2)[C@H](COc2ccc(OC(F)(F)F)cc2)CCC1(C)C` (some centres not stated) here?
A: 118 nM

Q: Which IC50 does the source give for `CO/N=C1\[C@@H](Cn2cncn2)[C@H](COc2ccc(OC(F)(F)F)cc2)CCC1(C)C` here?
A: 56.3 nM

Q: `CC1(C)CC[C@@H](COc2ccc(OC(F)(F)F)cc2)[C@H](Cn2cncn2)C1OCCO` (some centres not stated) was tested. Which IC50 did it give?
A: 22.5 nM

Q: Which IC50 does the source give for `CC1(C)CC[C@@H](COc2ccc(OC(F)(F)F)cc2)[C@H](Cn2cncn2)/C1=N\O` here?
A: 130 nM

Q: For `CCc1ccc(CC[C@@H]2CCC(C)(C)/C(=N/OC)[C@H]2Cn2cncn2)cc1`, which IC50 is on record?
A: 86.8 nM

Q: For `CCc1ccc(CC[C@@H]2CCC(C)(C)/C(=N/O)[C@H]2Cn2cncn2)cc1`, which IC50 is on record?
A: 73.3 nM

Source: BindingDB's records for doi:10.1016/s0960-894x(98)00316-3 (Nippon Roche Research Center, 1998)
